Results published in paper PMC3072440 (Chemical research in toxicology, 2010).
Read-outs that look alike come from different tables or passages of the source. Blank lines part the entries; values can stand above or below the molecule they belong to.

Key:
[1] = molecular target: T1, human P450 1A1 (Homo sapiens, UniProt P04798); test: Inhibition of P450 1A1-dependent EROD activity; format: biochemical
T1 sequence (P04798 1-512): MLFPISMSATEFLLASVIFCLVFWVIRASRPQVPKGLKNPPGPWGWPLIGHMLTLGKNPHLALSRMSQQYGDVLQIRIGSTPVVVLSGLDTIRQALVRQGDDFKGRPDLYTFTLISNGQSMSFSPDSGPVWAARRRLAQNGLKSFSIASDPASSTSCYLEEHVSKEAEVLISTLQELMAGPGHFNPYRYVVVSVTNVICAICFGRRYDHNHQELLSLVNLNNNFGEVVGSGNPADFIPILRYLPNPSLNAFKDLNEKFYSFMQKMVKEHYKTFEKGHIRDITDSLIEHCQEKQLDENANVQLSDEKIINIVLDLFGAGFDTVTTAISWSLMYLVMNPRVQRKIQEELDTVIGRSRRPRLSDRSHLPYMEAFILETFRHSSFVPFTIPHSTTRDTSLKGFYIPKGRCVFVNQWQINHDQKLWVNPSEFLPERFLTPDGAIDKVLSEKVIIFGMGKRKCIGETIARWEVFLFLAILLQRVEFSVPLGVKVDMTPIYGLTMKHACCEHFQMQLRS

[2] = molecular target: T2, human P450 3A4 (Homo sapiens, UniProt P08684); test: Inhibition of P450 3A4-dependent midazolam 4-hydroxylation
[3] = molecular target: T3, human P450 2C9 (Homo sapiens, UniProt P11712); test: Inhibition of P450 2C9-dependent flurbiprofen 4’-hydroxylation
[4] = molecular target: T4, human P450 1B1 (Homo sapiens, UniProt Q16678); test: Spectral binding titration with purified P450 1B1
T4 sequence (Q16678 1-543): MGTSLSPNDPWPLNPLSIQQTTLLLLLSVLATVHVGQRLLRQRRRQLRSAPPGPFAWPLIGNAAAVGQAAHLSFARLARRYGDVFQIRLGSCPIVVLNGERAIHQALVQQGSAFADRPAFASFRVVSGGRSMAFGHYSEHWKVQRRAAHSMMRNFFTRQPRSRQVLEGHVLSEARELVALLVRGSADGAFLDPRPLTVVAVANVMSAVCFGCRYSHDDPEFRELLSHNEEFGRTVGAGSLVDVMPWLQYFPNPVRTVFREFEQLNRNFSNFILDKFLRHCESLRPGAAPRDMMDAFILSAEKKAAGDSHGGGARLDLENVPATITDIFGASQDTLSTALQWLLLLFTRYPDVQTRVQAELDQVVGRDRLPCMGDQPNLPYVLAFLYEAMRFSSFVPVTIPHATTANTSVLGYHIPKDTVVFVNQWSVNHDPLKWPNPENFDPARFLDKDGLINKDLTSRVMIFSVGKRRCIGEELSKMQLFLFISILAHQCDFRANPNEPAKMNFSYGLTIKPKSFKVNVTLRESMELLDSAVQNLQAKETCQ

[5] = molecular target: T2, human P450 3A4; test: Spectral binding titration with purified P450 3A4; settings: decreases in α and β bands monitored; up to 100 µM
[6] = molecular target: T4, human P450 1B1; test: Inhibition of P450 1B1-dependent EROD activity; format: biochemical
[7] = molecular target: T5, human P450 1A2 (Homo sapiens, UniProt P05177)
T5 sequence (P05177 1-516): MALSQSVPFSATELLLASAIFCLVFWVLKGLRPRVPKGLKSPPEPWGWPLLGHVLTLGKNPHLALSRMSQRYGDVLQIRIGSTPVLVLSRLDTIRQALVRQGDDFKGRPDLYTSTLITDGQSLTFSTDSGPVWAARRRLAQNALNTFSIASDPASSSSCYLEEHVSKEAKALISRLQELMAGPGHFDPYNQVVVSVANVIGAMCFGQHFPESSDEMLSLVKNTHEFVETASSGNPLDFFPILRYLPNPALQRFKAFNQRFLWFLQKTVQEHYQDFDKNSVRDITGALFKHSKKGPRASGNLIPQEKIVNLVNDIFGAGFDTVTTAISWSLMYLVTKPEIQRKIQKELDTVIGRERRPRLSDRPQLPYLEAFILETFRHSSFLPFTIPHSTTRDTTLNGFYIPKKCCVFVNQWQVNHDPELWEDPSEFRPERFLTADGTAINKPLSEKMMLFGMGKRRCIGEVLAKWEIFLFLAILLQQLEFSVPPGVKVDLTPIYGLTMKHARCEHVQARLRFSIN

[8] = molecular target: T3, human P450 2C9
[9] = molecular target: T5, human P450 1A2; test: Inhibition of P450 1A2-dependent EROD activity
[10] = molecular target: T3, human P450 2C9; test: Spectral binding titration with purified P450 2C9; settings: concentrations up to 100 µM; results not shown
[11] = molecular target: T2, human P450 3A4; test: Effect on P450 3A4-catalyzed midazolam 1’-hydroxylation

T3 sequence (P11712 whole entry): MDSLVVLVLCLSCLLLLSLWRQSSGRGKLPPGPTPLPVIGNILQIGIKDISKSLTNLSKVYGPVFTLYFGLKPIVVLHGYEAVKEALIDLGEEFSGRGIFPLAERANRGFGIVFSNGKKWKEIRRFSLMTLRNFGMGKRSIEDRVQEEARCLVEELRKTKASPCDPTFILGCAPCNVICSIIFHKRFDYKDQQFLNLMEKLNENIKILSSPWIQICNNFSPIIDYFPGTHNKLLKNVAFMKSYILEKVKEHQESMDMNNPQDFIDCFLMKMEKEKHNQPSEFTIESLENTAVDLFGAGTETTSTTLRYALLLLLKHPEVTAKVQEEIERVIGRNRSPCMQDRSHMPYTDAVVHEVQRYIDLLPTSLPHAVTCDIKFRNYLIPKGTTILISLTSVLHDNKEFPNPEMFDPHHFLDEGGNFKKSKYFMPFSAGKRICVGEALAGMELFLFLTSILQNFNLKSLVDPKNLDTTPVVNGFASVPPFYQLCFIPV
T2 sequence (P08684 whole entry): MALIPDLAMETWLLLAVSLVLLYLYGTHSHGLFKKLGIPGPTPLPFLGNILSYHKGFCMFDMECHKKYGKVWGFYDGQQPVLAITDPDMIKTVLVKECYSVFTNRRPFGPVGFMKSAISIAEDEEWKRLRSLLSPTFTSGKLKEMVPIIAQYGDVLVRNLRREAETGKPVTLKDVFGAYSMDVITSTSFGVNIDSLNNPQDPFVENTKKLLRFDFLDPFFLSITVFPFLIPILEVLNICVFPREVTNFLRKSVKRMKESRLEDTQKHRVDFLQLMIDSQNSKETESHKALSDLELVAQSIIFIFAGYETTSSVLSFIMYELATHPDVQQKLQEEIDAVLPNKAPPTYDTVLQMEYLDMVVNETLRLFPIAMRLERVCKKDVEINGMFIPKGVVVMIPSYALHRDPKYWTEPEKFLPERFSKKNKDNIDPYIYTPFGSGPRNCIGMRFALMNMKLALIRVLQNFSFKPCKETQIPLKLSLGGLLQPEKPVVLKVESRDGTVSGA

Compound: COc1ccccc1-c1cc(=O)c2c(O)cc(O)cc2o1 [2’M57DHF, 2’-methoxy-5,7-dihydroxyflavone]
IC50 [1]: 1400 nM
IC50 [2]: 2000 nM
inhibition of P450 2C9 flurbiprofen 4’-hydroxylation, in words [3]: strong inhibitors

Compound: COc1ccccc1-c1cc(=O)c2ccccc2o1 [2’MF, 2’-Methoxyflavone]
spectral change / Type I binding spectra with P450 3A4, in words [5]: induced spectral changes
inhibition of P450 3A4 midazolam 4-hydroxylation, in words [2]: not very effective inhibitors

Compound: COc1ccc(-c2cc(=O)c3c(O)cc(O)cc3o2)cc1OC [3’4’DM57DHF, 3’4’-dimethoxy-5,7-dihydroxyflavone]
IC50 ([6]; read-out: inhibition of substrate oxidation by P450s (IC50), P450 1B1, 7-ethoxyresorufin O-deethylation, 2.5 µM substrate, bacterial membranes, means ± SD): 19 ± 3 nM
IC50 [1]: 72 ± 11 nM
IC50 [7]: 11 ± 3 nM
IC50 [8]: 880 ± 210 nM
inhibition of P450 2C9 flurbiprofen 4’-hydroxylation, in words [8]: strong inhibitors
IC50 of P450 3A4 fold higher than that for P450 1B1 ([2]; ratio IC50 3A4 / IC50 1B1): 2000 fold
IC50 of P450 3A4 fold higher than that of P450 2C9 ([2]; ratio IC50 3A4 / IC50 2C9): 43 fold

Compound: COc1ccc(-c2cc(=O)c3ccccc3o2)cc1OC [3’4’DMF, 3’,4’-dimethoxyflavone]
inhibition of P450 3A4 midazolam 4-hydroxylation, in words [2]: not very effective inhibitors

Compound: COc1cccc(-c2cc(=O)c3ccccc3o2)c1 [3’MF, 3’-methoxyflavone]
spectral change / Type I binding spectra with P450 3A4, in words [5]: induced spectral changes
inhibition of P450 3A4 midazolam 4-hydroxylation, in words [2]: not very effective inhibitors

Compound: COc1ccc(-c2cc(=O)c3ccccc3o2)cc1 [4’MF, 4’-methoxyflavone]
spectral change / Type I binding spectra with P450 3A4, in words [5]: induced spectral changes
inhibition of P450 3A4 midazolam 4-hydroxylation, in words [2]: not very effective inhibitors

Compound: O=c1cc(-c2ccccc2)oc2cccc(O)c12 [5HF, 5-hydroxyflavone]
IC50 [2]: > 100000 nM

Further lines, results first:

binding spectra with P450 1B1, in words [4]: no binding spectra
binding spectra with P450 1B1, in words ([4]; listed as 2M78DHF): did not show spectra
Compound: COc1ccccc1-c1cc(=O)c2ccc(O)c(O)c2o1 [2’M78DHF, 2’-methoxy-7,8-dihydroxyflavone]

IC50 [6]: > 100000 nM
IC50 [1]: 41000 ± 10000 nM
IC50 [9]: > 100000 nM
inhibition of P450 1A2 at 100 µM, in words ([9]; 100 µM concentration): did not inhibit
IC50 [2]: > 100000 nM
inhibition of P450 3A4 at 100 µM, in words ([2]; 100 µM concentration): not inhibitory
IC50 [3]: 25000 ± 4200 nM
Compound: COc1ccc(-c2cc(=O)c3ccc(O)c(O)c3o2)cc1OC [3’4’DM78DHF, 3’,4’-dimethoxy-7,8-dihydroxyflavone]

inhibition of P450 1B1 EROD, in words [6]: weak inhibitor
Compound: C[C@@H]1O[C@@H](O[C@H]2[C@H](Oc3cc(O)c4c(c3)O[C@H](c3ccc(O)cc3)CC4=O)O[C@H](CO)[C@@H](O)[C@@H]2O)[C@H](O)[C@H](O)[C@H]1O [4’57THFvaG, 4’,5,7-trihydroxyflavanone glycoside]

spectral change / Type I binding spectra with P450 3A4, in words [5]: induced spectral changes
spectral changes with P450 2C9, in words [10]: did not induce spectral changes
effect on formation of 1’-hydroxymidazolam by P450 3A4, in words [11]: slightly activated
inhibition of P450 3A4 midazolam 4-hydroxylation, in words [2]: significantly inhibited
IC50 [3]: 650 ± 130 nM
inhibition of P450 2C9 flurbiprofen 4’-hydroxylation, in words [3]: strong inhibitors
Compound: COc1ccc(-c2cc(=O)c3c(O)cc(O)cc3o2)cc1 [4’M57DHF, 4’-methoxy-5,7-dihydroxyflavone]

IC50 [6]: 700 nM
pattern of inhibition of P450 1B1 (kinetic analysis) ([6]; 357THF 0.02 µM, 4’57THFva 8.0 µM, 4’M57DHisoF 8.0 µM, results not shown): mixed-type
spectral changes with P450 2C9, in words [10]: did not induce spectral changes
Compound: COc1ccc(-c2coc3cc(O)cc(O)c3c2=O)cc1 [4’M57DHIsoF, 4’-methoxy-5,7-dihydroxyisoflavone]
